Results taken from the supplement of paper PMC11281043.

What was measured:
Conditions in all cases: exposure: 6-8 hpf to 5 dpf, scored at 6 dpf
Danio rerio embryo/larva [1] = assay: max % larvae with pigmentation defects across tested concentrations; higher = more toxic
Danio rerio embryo/larva [2] = assay: max % larvae with blood pooling across tested concentrations; higher = more toxic; extreme values may be limits of the assay
Danio rerio embryo/larva [3] = assay: max % larvae with tail defects across tested concentrations; higher = more toxic; extreme values may be limits of the assay
Danio rerio embryo/larva [4] = assay: max % larvae with uninflated swim bladder across tested concentrations; higher = more toxic; extreme values may be limits of the assay
Danio rerio embryo/larva [5] = assay: max % larvae with edema across tested concentrations; higher = more toxic; extreme values may be limits of the assay
Danio rerio embryo/larva [6] = assay: max % larvae with spinal defects across tested concentrations; higher = more toxic; extreme values may be limits of the assay
Danio rerio embryo/larva [7] = assay: max % larvae with craniofacial defects across tested concentrations; higher = more toxic; extreme values may be limits of the assay
Danio rerio embryo/larva [8] = assay: max % larvae with abnormal position across tested concentrations; higher = more toxic; extreme values may be limits of the assay
Danio rerio embryo/larva [9] = assay: max % larvae with any abnormality across tested concentrations; max tested concentration (log10 uM): 2; higher = more toxic; extreme values may be limits of the assay
Danio rerio embryo/larva [10] = assay: max % larvae unhatched across tested concentrations; max tested concentration (log10 uM): 2; higher = more toxic

SMILES | max % larvae (Danio rerio embryo/larva [1]) [%] | max % larvae (Danio rerio embryo/larva [2]) [%] | max % larvae (Danio rerio embryo/larva [3]) [%] | max % larvae (Danio rerio embryo/larva [4]) [%] | max % larvae (Danio rerio embryo/larva [5]) [%] | max % larvae (Danio rerio embryo/larva [6]) [%] | max % larvae (Danio rerio embryo/larva [7]) [%] | max % larvae (Danio rerio embryo/larva [8]) [%] | max % larvae (Danio rerio embryo/larva [9]) [%] | max % larvae unhatched across tested concentrations (Danio rerio embryo/larva [10]) [%]
O=S(=O)(O)CCC(F)(F)C(F)(F)C(F)(F)C(F)(F)C(F)(F)C(F)(F)F [6:2 Fluorotelomer sulfonic acid] (max tested concentration (log10 uM): 2) | 0 | 0 | 0 | 0 | 4.17 | 0 | 0 | 4.17 |  | 
O=S(=O)(O)C(F)(F)C(F)(F)C(F)(F)C(F)(F)C(F)(F)C(F)(F)F [Perfluorohexanesulfonic acid] (max tested concentration (log10 uM): 2) | 0 | 25 | 0 | 100 | 31.2 | 3.12 | 50 | 31.2 |  | 
O=S(=O)(OCC(F)(F)F)C(F)(F)C(F)(F)C(F)(F)C(F)(F)F [2,2,2-Trifluoroethyl perfluorobutanesulfonate] (max tested concentration (log10 uM): 2) | 0 | 31.8 | 4.55 | 90.9 | 54.5 | 0 | 9.09 | 11.4 |  | 
O=C(O)C(F)(F)C(F)(F)OC(F)(F)F [Perfluoro-3-methoxypropanoic acid] (max tested concentration (log10 uM): 2) | 0 | 16.7 | 0 | 0 | 8.33 | 0 | 0 | 0 |  | 
O=C(O)C(F)(F)C(F)(F)C(=O)O [Perfluorobutanedioic acid] (max tested concentration (log10 uM): 2) | 0 | 8.33 | 0 | 0 | 8.33 | 0 | 0 | 4.17 |  | 
O=S(=O)(Cl)C(F)(F)C(F)(F)C(F)(F)C(F)(F)C(F)(F)C(F)(F)C(F)(F)C(F)(F)F [Perfluoro-1-octanesulfonyl chloride] (max tested concentration (log10 uM): 2) | 0 | 0 | 100 | 100 | 100 | 25 | 100 | 25 |  | 
OCCCCC(F)(F)C(F)(F)C(F)(F)C(F)(F)F [4:4 Fluorotelomer alcohol] (max tested concentration (log10 uM): 2) | 0 | 0 | 15.6 | 93.8 | 93.8 | 0 | 81.2 | 18.8 |  | 
O=C(O)C=C(C(F)(F)F)C(F)(F)F [3,3-Bis(trifluoromethyl)-2-propenoic acid] (max tested concentration (log10 uM): 2) | 0 | 0 | 0 | 0 | 2.08 | 0 | 0 | 0 |  | 
FC(F)C(F)(F)COCC1CO1 (stereo not given) [((2,2,3,3-Tetrafluoropropoxy)methyl)oxirane] (max tested concentration (log10 uM): 2) | 0 | 0 | 0 | 91.7 | 31.2 | 0 | 16.7 | 8.33 |  | 
Cc1ccc(S(=O)(=O)OCC(F)(F)C(F)(F)C(F)(F)C(F)(F)C(F)(F)C(F)F)cc1 [1H,1H,7H-Perfluoroheptyl 4-methylbenzenesulfonate] (max tested concentration (log10 uM): 2) | 0 | 0 | 0 | 75 | 16.7 | 4.17 | 16.7 | 4.17 |  | 
O=C(O)C(F)(F)C(F)(F)C(F)(F)C(F)(F)C(F)(F)C(F)(F)C(F)(F)F [Perfluorooctanoic acid] |  |  |  |  |  |  |  |  | 16.7 | 0
O=S(=O)(O)C(F)(F)C(F)(F)C(F)(F)C(F)(F)C(F)(F)C(F)(F)C(F)(F)C(F)(F)F [Potassium perfluorooctanesulfonate] (max tested concentration (log10 uM): 2) | 0 | 33.3 | 100 | 100 | 100 | 50 | 100 | 50 |  | 
O=P(O)(O)CCC(F)(F)C(F)(F)C(F)(F)C(F)(F)C(F)(F)C(F)(F)F [2-(Perfluorohexyl)ethylphosphonic acid] (max tested concentration (log10 uM): 2) | 0 | 0 | 0 | 40 | 60 | 0 | 20 | 10 |  | 
FC(F)(F)C(F)(F)C(F)(F)C(F)(F)C(F)(F)C(F)(F)C(F)(F)I [1-Iodopentadecafluoroheptane] (max tested concentration (log10 uM): 2) | 0 | 16.7 | 0 | 80 | 30 | 8.33 | 10 | 10.4 |  | 
O=C(O)C(F)(F)C(F)(F)C(F)(F)C(F)(F)C(F)(F)C(F)(F)C(F)(F)F [Ammonium perfluorooctanoate] |  |  |  |  |  |  |  |  | 16.7 | 0
O=S(=O)(O)C(F)(F)C(F)(F)C(F)(F)C(F)(F)C(F)(F)C(F)(F)C(F)(F)F [Perfluoroheptanesulfonic acid] (max tested concentration (log10 uM): 1.90309) | 16.7 | 50 | 37.5 | 100 | 91.7 | 8.33 | 100 | 50 |  | 
O=C(O)CCC(F)(F)C(F)(F)C(F)(F)F [3:3 Fluorotelomer carboxylic acid] (max tested concentration (log10 uM): 2) | 0 | 10 | 2.5 | 20 | 17.5 | 0 | 10 | 7.5 |  | 
OCC(F)(F)OC(F)(F)C(F)(F)OC(F)(F)C(F)(F)OC(F)(F)CO [1H,1H,11H,11H-Perfluorotetraethylene glycol] |  |  |  |  |  |  |  |  | 100 | 0
C=CC(=O)OCC(F)(F)C(F)(F)C(F)(F)C(F)(F)C(F)(F)C(F)(F)C(F)(F)C(F)F [1H,1H,9H-Perfluorononyl acrylate] |  |  |  |  |  |  |  |  | 16.7 | 0
FC(F)(F)C(F)(F)C(F)(F)CC1CO1 (stereo not given) [1H,1H-Heptafluorobutyl epoxide] (max tested concentration (log10 uM): 2) | 0 | 9.09 | 9.09 | 9.09 | 9.09 | 0 | 9.09 | 0 |  | 
NC(=O)C(F)(F)C(F)(F)C(F)(F)F [Heptafluorobutyramide] (max tested concentration (log10 uM): 2) | 0 | 0 | 0 | 10 | 8.33 | 0 | 0 | 0 |  | 
FC(F)(F)C(F)(F)CNCC(F)(F)C(F)(F)F [Bis(1H,1H-perfluoropropyl)amine] (max tested concentration (log10 uM): 2) | 0 | 0 | 0 | 16.7 |  | 0 | 0 | 0 |  | 
O=C(O)C(F)(F)C(F)(F)C(F)(F)C(F)(F)C(F)(F)C(F)(F)C(F)(F)F [Potassium perfluorooctanoate] (max tested concentration (log10 uM): 2) | 0 | 9.09 | 2.27 | 9.09 | 9.09 | 0 | 9.09 | 2.27 |  | 
O=C(O)C(F)(F)C(F)(F)C(F)(F)C(F)(F)C(F)(F)C(F)(F)C(F)(F)F [Ammonium perfluorooctanoate] (max tested concentration (log10 uM): 2) | 0 | 0 | 0 | 9.09 | 0 | 0 | 0 | 0 |  | 
C=C(C)C(=O)OCC(F)(F)C(F)(F)C(F)(F)F [(Perfluoropropyl)methyl methacrylate] (max tested concentration (log10 uM): 2) | 4.17 | 0 | 4.17 | 8.33 | 8.33 | 0 | 8.33 | 4.17 |  | 
OCC(F)(F)C(F)(F)C(F)(F)C(F)(F)C(F)(F)C(F)(F)F [6:1 Fluorotelomer alcohol] (max tested concentration (log10 uM): 2) | 0 | 16.7 | 12.5 | 25 | 25 | 12.5 | 25 | 4.17 |  | 
O=C(O)C(F)(F)C(F)(F)C(F)(F)C(F)(F)C(F)(F)C(F)(F)F [Perfluoroheptanoic acid] |  |  |  |  |  |  |  |  | 16.7 | 0
